This is an account of results in ChEMBL document CHEMBL3638639, “Chemical compounds” (2015).

The target of the assay is T1, Solute carrier family 22 member 12 (Homo sapiens, UniProt Q96S37).
T1 sequence (Q96S37 whole entry): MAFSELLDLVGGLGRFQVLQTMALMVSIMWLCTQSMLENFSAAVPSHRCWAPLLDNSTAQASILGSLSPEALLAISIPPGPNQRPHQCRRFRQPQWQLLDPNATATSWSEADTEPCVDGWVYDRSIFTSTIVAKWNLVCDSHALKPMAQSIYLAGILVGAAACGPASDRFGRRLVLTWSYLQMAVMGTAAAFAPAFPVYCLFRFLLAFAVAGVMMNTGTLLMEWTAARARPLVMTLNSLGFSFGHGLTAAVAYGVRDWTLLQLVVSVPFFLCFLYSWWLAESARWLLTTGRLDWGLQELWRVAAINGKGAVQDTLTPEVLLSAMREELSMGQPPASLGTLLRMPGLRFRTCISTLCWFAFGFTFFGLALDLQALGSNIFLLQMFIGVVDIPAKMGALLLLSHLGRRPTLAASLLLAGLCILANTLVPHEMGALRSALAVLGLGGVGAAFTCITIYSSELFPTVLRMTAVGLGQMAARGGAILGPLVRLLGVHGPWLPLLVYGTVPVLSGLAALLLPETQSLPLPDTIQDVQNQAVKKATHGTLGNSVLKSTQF
In words: [14C]-Uric Uric acid working stock was made by addition of radiolabeled compound to a final concentration of 120 nM in chloride-free buffer. In all wells, the final assay concentration of solvent (DMSO) was 0.25%; the final assay concentration of [14C]-uric acid was 30 nM in chloride-free buffer and the final compound of formula (I) concentrations ranged from 0 to 10 uM.

Turning to `N#Cc1ccc(Oc2ccc(S(=O)(=O)Nc3ccc(F)cn3)cc2C#N)c(F)c1`, the IC50 (as a rule, the midpoint of a concentration-inhibition curve) worked out at 47 nM. The molecule `N#Cc1cc(S(=O)(=O)Nc2ccc(F)cn2)ccc1Oc1ccc(Cl)cc1Cl` registered a 50% inhibitory concentration (IC50) of 84 nM.

Regarding `N#Cc1ccccc1Oc1ccc(S(=O)(=O)Nc2ccc(F)cn2)cc1C#N`, inhibition was half-maximal at 495 nM (IC50). Take `Cc1ccc(F)c(Oc2ccc(S(=O)(=O)Nc3ccc(F)cn3)cc2C#N)c1`: the IC50 came to 117 nM. In turn, `Cc1ccc(Cl)c(Oc2ccc(S(=O)(=O)Nc3ccc(F)cn3)cc2C#N)c1` showed an IC50 of 196 nM.

As to `N#Cc1cc(S(=O)(=O)Nc2ccc(F)cn2)ccc1Oc1cnc(N2CCC2)c(Cl)c1`, the IC50 stood at 1000 nM. As for `CNc1ncc(Oc2ccc(S(=O)(=O)Nc3ccc(F)cn3)cc2C#N)cc1Cl`, half-maximal inhibition (IC50) required 258 nM. Consider `CN(C)c1ncc(Oc2ccc(S(=O)(=O)Nc3ccc(F)cn3)cc2C#N)cc1Cl`, for which the half-inhibitory concentration (IC50) came to 472 nM. In turn, `N#Cc1cc(S(=O)(=O)Nc2ccc(F)cn2)ccc1Oc1cnc(N)c(Cl)c1` had a 50% inhibitory concentration (IC50) of 87 nM.
